The record followed here is ChEMBL document CHEMBL3862009 (Bioorg Med Chem Lett, 2016).

For assay [1], the target named is T1, Histamine H4 receptor (Homo sapiens, UniProt Q9H3N8). The assay is described as follows: Antagonist activity at human histamine H4 receptor expressed in human SH-SY5Y cell membranes assessed as inhibition of Imetit-induced [35S]GTPgammaS binding. Type of assay: functional. Background: GTPγS is a poorly hydrolysed GTP analogue; its binding reports G protein activation.

In assay [2] the target is T1, Histamine H4 receptor. The assay is described as follows: Intrinsic activity at human histamine H4 receptor expressed in human SH-SY5Y cell membranes by [35S]GTPgammaS binding assay. Type of assay: functional.
The next assay deals with HEK293. The assay is described as follows: Selectivity ratio of Ki for human H3 receptor expressed in HEK293 cell membranes to Kb for human histamine H4 receptor expressed in human SH-SY5Y cell membranes. Type of assay: cell-based.
Assay [3] deals with T2, Histamine H3 receptor (Homo sapiens, UniProt Q9Y5N1). The assay is described as follows: Displacement of [125I]iodoproxyfan from human H3 receptor expressed in HEK293 cell membranes after 1 hr. (Displacement assays read how much labelled ligand stays bound in the presence of the test substance.)
Assay [4] has as its target T1, Histamine H4 receptor. Kind of assay: Binding affinity to histamine H4 receptor (unknown origin).
Assay [5] concerns the target T2, Histamine H3 receptor. The assay is described as follows: Binding affinity to histamine H3 receptor (unknown origin).
In assay [6] the target is T2, Histamine H3 receptor. The assay is described as follows: Antagonist activity at human histamine H3 receptor.

Where only a bound is given, the exact number is not on record here.

T1 sequence (Q9H3N8 whole entry): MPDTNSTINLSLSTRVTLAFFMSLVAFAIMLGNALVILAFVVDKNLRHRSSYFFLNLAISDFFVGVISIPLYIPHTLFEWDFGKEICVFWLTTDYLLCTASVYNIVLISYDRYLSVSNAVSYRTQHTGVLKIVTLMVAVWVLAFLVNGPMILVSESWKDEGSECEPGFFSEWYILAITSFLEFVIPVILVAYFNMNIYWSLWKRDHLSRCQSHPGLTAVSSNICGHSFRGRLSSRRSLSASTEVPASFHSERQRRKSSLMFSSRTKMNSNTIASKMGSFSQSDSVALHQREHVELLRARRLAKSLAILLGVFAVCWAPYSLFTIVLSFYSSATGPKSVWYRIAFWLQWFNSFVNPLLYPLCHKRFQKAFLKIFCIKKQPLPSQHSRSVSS
T2 sequence (Q9Y5N1 whole entry): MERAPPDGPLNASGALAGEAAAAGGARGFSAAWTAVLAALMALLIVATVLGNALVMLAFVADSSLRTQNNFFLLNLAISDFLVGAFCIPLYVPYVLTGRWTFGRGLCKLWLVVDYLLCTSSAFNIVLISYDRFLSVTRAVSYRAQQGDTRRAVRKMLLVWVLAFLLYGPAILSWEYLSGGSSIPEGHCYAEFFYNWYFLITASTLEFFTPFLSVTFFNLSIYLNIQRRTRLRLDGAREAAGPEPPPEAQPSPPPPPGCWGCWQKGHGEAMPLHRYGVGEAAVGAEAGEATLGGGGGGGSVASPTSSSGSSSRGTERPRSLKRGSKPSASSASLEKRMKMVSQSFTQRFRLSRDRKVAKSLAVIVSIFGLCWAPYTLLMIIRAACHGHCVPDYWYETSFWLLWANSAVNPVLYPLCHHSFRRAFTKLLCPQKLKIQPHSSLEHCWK

For orientation: Kb means the affinity of an antagonist, worked out from how it opposes an agonist. Regarding `c1ccc(C(OCCCCn2ccnc2)c2nc3ccccc3s2)cc1` (configuration not stated), the Kb at Histamine H4 receptor [1] was greater than 10000 nM. In addition, the Intrinsic activity at Histamine H4 receptor [2] is 0.
As for `Cc1nc(CCCOC(c2ccccc2)c2nc3ccccc3s2)c[nH]1` (configuration not stated), the Kb at Histamine H4 receptor [1] is greater than 10000 nM. Further, the Intrinsic activity on Histamine H4 receptor [2] is 0.
The corresponding values for `Cc1[nH]cnc1CCCOC(c1ccccc1)c1nc2ccccc2s1` (configuration not stated) are 1.6 nM and 0.
A word on the Ki: it is a dissociation constant, usually derived from enzyme kinetics or from competition with a known ligand. `c1ccc(C(OCCCc2c[nH]cn2)c2nc3ccccc3s2)cc1` (configuration not stated): the Selectivity ratio in the assay with HEK293 was found to be 31. In addition, at Histamine H3 receptor [3], affinity was put at a Ki of 34 nM. Also, on Histamine H4 receptor [1], the Kb was determined as 1.1 nM. Besides, the Intrinsic activity on Histamine H4 receptor [2] is 0.
For the compound `Cn1cnc(CCN)c1` [N-METHYLHISTAMINE], the Ki was found to be 11000 nM at Histamine H4 receptor [4] and 20000 nM at Histamine H3 receptor [5].
For `c1ccc(C(OCCCc2c[nH]cn2)c2ccc3ccccc3c2)cc1` (configuration not stated), the Kb on Histamine H4 receptor [1] is 100 nM. Besides, the Intrinsic activity on Histamine H4 receptor [2] came out at 0.
On to `c1ccc(C(OCCCc2c[nH]cn2)c2cncnc2)cc1` (configuration not stated), for which the Kb at Histamine H4 receptor [1] was 29 nM. Moreover, the Intrinsic activity on Histamine H4 receptor [2] was 0.
As to `c1ccc(C(OCc2c[nH]cn2)c2nc3ccccc3s2)cc1` (configuration not stated), the Kb on Histamine H4 receptor [1] stood at 399 nM. Also, at Histamine H4 receptor [2], the Intrinsic activity is 0.
The corresponding values for `c1ccc(C(OCCn2ccnc2)c2nc3ccccc3s2)cc1` (configuration not stated) are greater than 10000 nM and 0.
On to `c1ccc(-c2ccc(C(OCCCc3c[nH]cn3)c3ccccc3)cc2)cc1` (configuration not stated), for which the Kb on Histamine H4 receptor [1] stood at 17 nM. The same compound came in with an Intrinsic activity on Histamine H4 receptor [2] of 0.
As for `Cn1cnc(CCCOC(c2ccccc2)c2nc3ccccc3s2)c1` (configuration not stated), the Kb at Histamine H4 receptor [1] was greater than 10000 nM. Also, at Histamine H4 receptor [2], the Intrinsic activity is 0.
In the case of `c1ccc(C(OCCCc2c[nH]cn2)c2ccccc2)cc1`, the Selectivity ratio in the assay on HEK293 is 0.9. Moreover, the Ki on Histamine H3 receptor [3] and at Histamine H3 receptor [6] was 17 nM each time. Moreover, the Kb at Histamine H4 receptor [1] was 19 nM. The Intrinsic activity at Histamine H4 receptor [2] was 0.
`c1ccc(C(OCCCc2c[nH]cn2)c2cccnc2)cc1` (configuration not stated): at Histamine H4 receptor [1], the antagonist dissociation constant (Kb) was 32 nM. The same compound showed an Intrinsic activity at Histamine H4 receptor [2] of 0.
As for `c1ccc(C(OCCCn2ccnc2)c2nc3ccccc3s2)cc1` (configuration not stated), on Histamine H4 receptor [1], the Kb was greater than 10000 nM. On Histamine H4 receptor [2], this compound came in with an Intrinsic activity of 0.
On to `c1ccc(C(OCCc2c[nH]cn2)c2nc3ccccc3s2)cc1` (configuration not stated), for which the Kb on Histamine H4 receptor [1] was found to be 3.7 nM. In addition, the Intrinsic activity at Histamine H4 receptor [2] was determined as 0.
Regarding `Cn1cncc1CCCOC(c1ccccc1)c1nc2ccccc2s1` (configuration not stated), at Histamine H4 receptor [1], the Kb is greater than 10000 nM. The Intrinsic activity at Histamine H4 receptor [2] came out at 0.
